The first test addresses T1, Thromboxane A2 receptor (Homo sapiens, UniProt P21731).
T1 sequence (P21731 whole entry): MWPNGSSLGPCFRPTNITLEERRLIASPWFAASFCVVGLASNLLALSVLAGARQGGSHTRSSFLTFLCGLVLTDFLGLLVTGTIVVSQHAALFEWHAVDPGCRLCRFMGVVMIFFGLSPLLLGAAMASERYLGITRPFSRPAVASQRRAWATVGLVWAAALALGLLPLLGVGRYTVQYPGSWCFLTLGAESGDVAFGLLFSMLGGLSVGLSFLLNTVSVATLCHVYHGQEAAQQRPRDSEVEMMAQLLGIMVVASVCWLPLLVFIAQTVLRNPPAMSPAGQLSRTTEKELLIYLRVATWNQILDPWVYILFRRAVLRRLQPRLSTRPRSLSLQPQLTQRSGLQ
Put plainly: In vitro thromboxane receptor antagonist activity was determined by inhibition of U-46619 induced aggregation of washed human platelets. The class given is functional.
Regarding `O=C(O)CCCCCc1cccc2cncn12` [PIRMAGREL], the IC50 entry is given as “Not Active”.

A further test addresses T2, Thromboxane-A synthase (Homo sapiens, UniProt P24557).
T2 sequence (P24557 whole entry): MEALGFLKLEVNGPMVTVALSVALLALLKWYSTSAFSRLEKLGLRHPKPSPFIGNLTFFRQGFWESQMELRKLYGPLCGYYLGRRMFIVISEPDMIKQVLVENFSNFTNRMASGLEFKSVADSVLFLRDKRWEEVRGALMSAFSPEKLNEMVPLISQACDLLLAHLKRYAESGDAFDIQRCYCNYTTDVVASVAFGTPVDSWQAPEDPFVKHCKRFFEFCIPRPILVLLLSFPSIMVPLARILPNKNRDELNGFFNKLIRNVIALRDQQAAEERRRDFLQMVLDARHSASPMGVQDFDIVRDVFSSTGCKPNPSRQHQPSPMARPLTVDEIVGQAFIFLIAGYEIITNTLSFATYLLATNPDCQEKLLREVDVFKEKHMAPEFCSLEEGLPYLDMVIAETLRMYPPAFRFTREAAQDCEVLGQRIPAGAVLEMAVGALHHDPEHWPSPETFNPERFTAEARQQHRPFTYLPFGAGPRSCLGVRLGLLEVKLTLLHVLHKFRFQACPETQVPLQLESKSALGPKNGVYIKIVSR
Put plainly: In vitro inhibition of thromboxane synthase.
For `O=C(O)CC/C=C\CC[C@@H]1[C@@H](c2cccnc2)[S@@+]([O-])C[C@H]1OCc1ccc(-c2ccccc2)cc1`, the concentration for half-maximal inhibition (IC50) was over 200 nM.

`O=C(O)CC/C=C\CC[C@@H]1[C@@H](c2cccnc2)[S@+]([O-])C[C@H]1OCc1ccc(-c2ccccc2)cc1`: the IC50 is over 200 nM.

The compound `O=C(O)CC/C=C\CC[C@H]1[C@@H](OCc2ccc(-c3ccccc3)cc2)CS(=O)(=O)[C@@H]1c1cccnc1` showed a half-maximal inhibitory concentration (IC50) of over 200 nM.

`O=C(O)CC/C=C\CC[C@H]1[C@@H](OCc2ccc(-c3ccccc3)cc2)CS[C@@H]1c1cccnc1` showed an IC50 of 11 nM.

Compound `O=C(O)CC/C=C\CC[C@H]1[C@@H](OCc2ccc(-c3ccccc3)cc2)C[S+]([O-])[C@@H]1c1cccnc1` (some centres not stated) came in with an IC50 of over 100 nM.

For the compound `O=C(O)CC/C=C\CC[C@@H]1[C@@H](c2cccnc2)S(=O)(=O)C[C@H]1OCc1ccc(-c2ccccc2)cc1`, the half-inhibitory concentration (IC50) is over 200 nM.

Turning to `O=C(O)CCC/C=C\C[C@@H]1[C@@H](c2cccnc2)SC[C@H]1OCc1ccc(-c2ccccc2)cc1`, inhibition was half-maximal at 43 nM (IC50).

`O=C(O)CC/C=C\CC[C@@H]1[C@@H](c2cccnc2)SC[C@H]1OCc1ccc(-c2ccccc2)cc1` (stereo in doubt; 1): it took 10 nM to reach half-maximal inhibition (IC50).

`O=C(O)CC/C=C\CC[C@@H]1[C@@H](c2cccnc2)SC[C@H]1OCc1ccc(-c2ccccc2)cc1` (stereo in doubt; (+)) returned an IC50 of 18 nM.

Turning to `O=C(O)CC/C=C\CC[C@@H]1[C@@H](c2cccnc2)SC[C@H]1OCc1ccc(-c2ccccc2)cc1` (stereo in doubt; (-)), the 50% inhibitory concentration (IC50) amounted to 13 nM.

As to `O=C(O)CCCCCc1cccc2cncn12` [PIRMAGREL], the IC50 was 3 nM.

As a reminder, the IC50 is the concentration needed to halve the response being measured. A lower IC50 goes with inhibition by little substance.
